Biological target: T1, α2wt (Homo sapiens, UniProt P23416)
T1 sequence (P23416 28-452): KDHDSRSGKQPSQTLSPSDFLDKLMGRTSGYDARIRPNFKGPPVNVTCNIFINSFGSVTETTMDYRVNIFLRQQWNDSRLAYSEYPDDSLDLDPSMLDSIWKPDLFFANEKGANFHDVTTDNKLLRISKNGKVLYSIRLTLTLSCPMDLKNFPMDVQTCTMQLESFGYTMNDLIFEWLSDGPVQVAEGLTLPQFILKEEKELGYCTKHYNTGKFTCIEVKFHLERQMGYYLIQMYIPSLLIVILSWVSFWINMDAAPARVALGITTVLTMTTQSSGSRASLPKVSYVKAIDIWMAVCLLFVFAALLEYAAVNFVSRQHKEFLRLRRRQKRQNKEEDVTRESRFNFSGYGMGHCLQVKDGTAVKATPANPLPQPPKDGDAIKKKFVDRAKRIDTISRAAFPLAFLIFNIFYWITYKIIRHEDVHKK
Experiment: whole-cell patch clamp
Assay type: cell-based
Conditions: agonist; pH 7.4; -80 mV

NCC(=O)O [glycine]
EC50: Dose response of glycine from (A)

— article doi:10.1101/2021.05.17.444520v1 (biorxiv, 2021)
